pIC50: −log10 of the molar value.
The compounds below were run on T1, PIM-1 or PIM-2 (assay: PIM-1 / PIM-2 biochemical assay (ADP Hunter assay kit)). Details: tested in either the PIM-1 or the PIM-2 biochemical assay (as appropriate); ATP 100 μM.
T1 construct: fused on or other part: C-terminal histidine tag (PIM-1 enzyme); N-terminal histidine tag (PIM-2 enzyme)
Set-up: species or system human
From the text: The biochemical assay to measure PIM-1 activity relies on the ADP Hunter assay kit (DiscoveRx Corp., Cat. # 90-0077), that determines the amount of ADP as direct product of the kinase enzyme activity.
The enzyme has been expressed and purified in-house as a recombinant human protein with a C-terminal histidine tag. The protein is active and stable.
(§1) Assay conditions were as indicated by the kit manufacturers with the following adaptations for the kinase activity step: • Kinase assay buffer and assay volume stay as recommended (15 mM HEPES, pH 7.4, 20 mM NaCl, 1 mM EGTA, 0.02% Tween 20, 10 mM MgCl2 and 0.1 mg/ml bovine γ-globulins/75 μl assay volume) • Incubation time and temperature: 60 min at 30° C. • PIM-1 concentration: 50 pg/μl • ATP concentration: 100 μM • PIM-1 substrate peptide: PIMtide (ARKRRRHPSGPPTA) • Peptide concentration: 60 μM • Positive control for kinase activity inhibition: 1-10 μM Staurosporine • DMSO concentration have to stay below 2% during the kinase reaction
Assays were performed in either 96 or 384-well plates. The final outcome of the coupled reactions provided by the kit is the release of the fluorescent product Resorufin and has been measured with a multilabel HTS counter VICTOR V (PerkinElmer) using an excitation filter at 544 nm and an emission filter at 580 nm.
The biochemical assay to measure PIM-2 activity relies on the ADP Hunter assay kit (DiscoveRx Corp., Cat. # 90-0077), that determines the amount of ADP as direct product of the kinase enzyme activity.
The enzyme has been expressed and purified in-house as a recombinant human protein with a N-terminal histidine tag. The protein is active and stable.
as §1, with “mg/ml bovine γ-globulins/20 μl assay” for “mg/ml bovine γ-globulins/75 μl assay”, “and temperature: 30 min at” for “and temperature: 60 min at”, “C. • PIM-2 concentration: 350” for “C. • PIM-1 concentration: 50”, “PIM-2 concentration: 350 pg/μl •” for “PIM-1 concentration: 50 pg/μl •”, “Peptide concentration: 100 μM •” for “Peptide concentration: 60 μM •”

Compound	pIC50
O=C(Nc1ccccc1)c1cnc2ccc(-c3ccccc3)nn12 [Example 45, 6-Phenyl-imidazo[1,2-b]pyridazine-3-carboxylic acid phenylamide]	6.31
Cc1cc2ncc(C(=O)Nc3ccccc3)n2nc1NCc1ccc(Cl)c(Cl)c1 [Example 55, 6-(3,4-Dichloro-benzylamino)-7-methyl-imidazo[1,2-b]pyridazine-3-carboxylic acid phenylamide]	7.15
O=C(Nc1ccc(O)cc1)c1cnc2ccc(NCc3ccc(F)cc3)nn12 [Example 32, 6-(4-Fluoro-benzylamino)-imidazo[1,2-b]pyridazine-3-carboxylic acid (4-hydroxy-phenyl)-amide]	7.15
COCCNC(=O)c1cnc2ccc(NCc3ccc(Cl)c(Cl)c3)nn12 [Example 19, 6-(3,4-Dichloro-benzylamino)-imidazo[1,2-b]pyridazine-3-carboxylic acid (2-methoxy-ethyl)-amide]	5.33
COc1ccc(CNc2cc(C)c3ncc(C(=O)Nc4cccc(C(=O)O)c4)n3n2)cc1 [Example 65, 3-{[6-(4-Methoxy-benzylamino)-8-methyl-imidazo[1,2-b]pyridazine-3-carbonyl]-amino}-benzoic acid]	4.71
COc1ccc(CNc2ccc3nc(C)c(C(=O)Nc4ccccc4)n3n2)cc1 [Example 81, 6-(4-Methoxy-benzylamino)-2-methyl-imidazo[1,2-b]pyridazine-3-carboxylic acid phenylamide]	5.05
O=C(Nc1ccccc1)c1cnc2cc(C3CCCC3)c(NCc3ccc(F)cc3)nn12 [Example 68, 7-Cyclopentyl-6-(4-fluoro-benzylamino)-imidazo[1,2-b]pyridazine-3-carboxylic acid phenylamide]	7.10
Cc1cc(NCc2ccc(Cl)c(Cl)c2)nn2c(C#Cc3ccccc3)cnc12 [Example 71, (3,4-Dichloro-benzyl)-(8-methyl-3-phenylethynyl-imidazo[1,2-b]pyridazin-6-yl)-amine]	5.28
Cc1ccc(CNc2nn3c(C(=O)Nc4ccccc4)cnc3cc2C)cc1F [Example 60, 6-(3-Fluoro-4-methyl-benzylamino)-7-methyl-imidazo[1,2-b]pyridazine-3-carboxylic acid phenylamide]	7.22
CN(Cc1ccc(Cl)c(Cl)c1)c1ccc2ncc(C(=O)Nc3ccccc3)n2n1 [Example 42, 6-[(3,4-Dichloro-benzyl)-methyl-amino]-imidazo[1,2-b]pyridazine-3-carboxylic acid phenylamide]	7.22
O=S(=O)(Nc1cnc2ccc(-c3ccccc3)nn12)c1ccccc1 [Example 86, N-(6-Phenyl-imidazo[1,2-b]pyridazin-3-yl)-benzenesulfonamide]	4.84
CC(=O)c1cccc(NC(=O)c2cnc3ccc(NCc4ccc(Cl)c(Cl)c4)nn23)c1 [Example 22, 6-(3,4-Dichloro-benzylamino)-imidazo[1,2-b]pyridazine-3-carboxylic acid (3-acetylphenyl)amide]	4.48
O=C(Nc1ccccc1)c1cnc2ccc(Nc3cccnc3)nn12 [Example 41, 6-(Pyridin-3-ylamino)-imidazo[1,2-b]pyridazine-3-carboxylic acid phenyl-amide]	7.22
O=C(Nc1ccccc1)c1cnc2ccc(Nc3ccccc3)nn12 [Example 39, 6-Phenylamino-imidazo[1,2-b]pyridazine-3-carboxylic acid phenylamide]	7.40
Clc1ccc(CNc2ccc3ncc(CN4CCOCC4)n3n2)cc1Cl [Example 53, (3,4-Dichloro-benzyl)-(3-morpholin-4-ylmethyl-imidazo[1,2-b]pyridazin-6-yl)-amine]	4.48
Cc1cc2ncc(C(=O)Nc3ccccc3)n2nc1NCc1cccc(F)c1 [Example 61, 6-(3-Fluoro-benzylamino)-7-methyl-imidazo[1,2-b]pyridazine-3-carboxylic acid phenylamide]	7.22
CCOC(=O)c1cccc(NC(=O)c2cnc3c(C)cc(NCc4ccc(OC)cc4)nn23)c1 [Example 64, 3-{[6-(4-Methoxy-benzylamino)-8-methyl-imidazo[1,2-b]pyridazine-3-carbonyl]-amino}-benzoic acid ethyl ester]	6.80
CCNC(=O)c1cnc2ccc(NCc3ccc(Cl)c(Cl)c3)nn12 [Example 25, 6-(3,4-Dichloro-benzylamino)-imidazo[1,2-b]pyridazine-3-carboxylic acid ethylamide]	5.66
Cc1cc2ncc(C#Cc3ccccc3)n2nc1NCc1ccc(Cl)c(Cl)c1 [Example 70, (3,4-Dichloro-benzyl)-(7-methyl-3-phenylethynyl-imidazo[1,2-b]pyridazin-6-yl)-amine]	5.65
COc1ccc(NC(=O)c2cnc3ccc(NCc4ccc(S(N)(=O)=O)cc4)nn23)cn1 [Example 27]	5.94
O=C(Nc1ccccc1)c1cnc2ccc(N3Cc4ccccc4C3)nn12 [Example 44, 6-(1,3-Dihydro-isoindol-2-yl)-imidazo[1,2-b]pyridazine-3-carboxylic acid phenylamide]	6.74
COc1ccc(CNc2nn3c(C(=O)Nc4ccccc4)cnc3cc2C2CCCC2)cc1 [Example 69, 7-Cyclopentyl-6-(4-methoxy-benzylamino)-imidazo[1,2-b]pyridazine-3-carboxylic acid phenylamide]	6.72
COc1ccc(NC(=O)c2cnc3ccc(NCc4ccco4)nn23)cc1OC [Example 15, 6-[(Furan-2-ylmethyl)-amino]-imidazo[1,2-b]pyridazine-3-carboxylic acid (3,4-dimethoxy-phenyl)-amide]	5.39
O=C(Nc1ccc2[nH]ccc2c1)c1cnc2ccc(NCc3ccc(Cl)c(Cl)c3)nn12 [Example 17, 6-(3,4-Dichloro-benzylamino)-imidazo[1,2-b]pyridazine-3-carboxylic acid (1H-indol-5-yl)-amide]	6.37

More lines, now with the values ahead:

pIC50	Compound
4.84	O=C(Nc1cnc2ccc(-n3ccnc3)nn12)c1ccc(O)cc1 [Example 103, 4-Hydroxy-N-(6-imidazol-1-yl-imidazo[1,2-b]pyridazin-3-yl)-benzamide]
5.13	COc1ccc(CNc2ccc3ncc(C(=O)Nc4cccc(C(=O)O)c4)n3n2)cc1 [Example 31, 3-{[6-(4-Methoxy-benzylamino)-imidazo[1,2-b]pyridazine-3-carbonyl]-amino}-benzoic acid]
5.28	O=C(Nc1cnc2ccc(-c3ccccc3)nn12)c1ccccc1 [Example 84, N-(6-Phenyl-imidazo[1,2-b]pyridazin-3-yl)-benzamide]
6.51	COc1ccc(C(=O)Nc2cnc3ccc(NCc4ccc(F)cc4)nn23)cc1 [Example 91, N-[6-(4-Fluoro-benzylamino)-imidazo[1,2-b]pyridazin-3-yl]-4-methoxy-benzamide]
7.10	COc1ccc(NC(=O)c2cnc3ccc(NCc4ccc(F)cc4)nn23)cc1 [Example 11, 6-(4-Fluoro-benzylamino)-imidazo[1,2-b]pyridazine-3-carboxylic acid (4-methoxy-phenyl)-amide]
4.72	COc1ccc(C(=O)Nc2cnc3ccc(-n4ccnc4)nn23)cc1 [Example 100, N-(6-Imidazol-1-yl-imidazo[1,2-b]pyridazin-3-yl)-4-methoxy-benzamide]
6.42	COc1ccc(CNc2ccc3ncc(C(=O)Nc4ccc(C(=O)O)cc4)n3n2)cc1 [Example 30]
6.39	O=C(Nc1cnc2ccc(NCc3ccc(F)cc3)nn12)c1ccc(O)cc1 [Example 101, N-[6-(4-Fluoro-benzylamino)-imidazo[1,2-b]pyridazin-3-yl]-4-hydroxy-benzamide]
6.28	O=C(Nc1ccccc1)c1cnc2ccc(-n3cccc3)nn12 [Example 37, 6-Pyrrol-1-yl-imidazo[1,2-b]pyridazine-3-carboxylic acid phenylamide]
5.65	O=C(Nc1ccccc1)c1cnc2ccc(Oc3ccc(F)cc3)nn12 [Example 36]
6.92	O=C(Nc1ccccc1)c1cnc2ccc(Oc3ccccc3)nn12 [Example 35, 6-Phenoxy-imidazo[1,2-b]pyridazine-3-carboxylic acid phenylamide]
4.72	CCC(=O)Nc1cnc2ccc(NCc3ccc(F)cc3)nn12 [Example 89, N-[6-(4-Fluoro-benzylamino)-imidazo[1,2-b]pyridazin-3-yl]-propionamide]
6.33	O=C(Nc1ccccc1)c1cnc2ccc(-c3ccoc3)nn12 [Example 47, 6-Furan-3-yl-imidazo[1,2-b]pyridazine-3-carboxylic acid phenylamide]

Source: patent US20110046127A1, “Imidazopyridazines for Use as Protein Kinase Inhibitors” (priority 2007, published 2011)
